Experimental data from article PMC6934184, “Selective DNA-PKcs inhibition extends the therapeutic index of localized radiotherapy and chemotherapy” (The Journal of Clinical Investigation, 2019).

Target: T1, TGFBR1 (ALK5) (Homo sapiens, UniProt P36897)
T1 construct: purchased Thermo Fisher Scientific (Life Technologies) SelectScreen
Experiment: SelectScreen LanthaScreen
Format: binding
Conditions: read-out: % displacement
Method in brief: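 SelectScreen broad panel; activity (Z'LYTE, Adapta) plus binding formats. ATP: Km app for CSF1R Z'LYTE; 10 for CAMK1 Adapta. Readout = % per kinase.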

T1 sequence (P36897 34-503): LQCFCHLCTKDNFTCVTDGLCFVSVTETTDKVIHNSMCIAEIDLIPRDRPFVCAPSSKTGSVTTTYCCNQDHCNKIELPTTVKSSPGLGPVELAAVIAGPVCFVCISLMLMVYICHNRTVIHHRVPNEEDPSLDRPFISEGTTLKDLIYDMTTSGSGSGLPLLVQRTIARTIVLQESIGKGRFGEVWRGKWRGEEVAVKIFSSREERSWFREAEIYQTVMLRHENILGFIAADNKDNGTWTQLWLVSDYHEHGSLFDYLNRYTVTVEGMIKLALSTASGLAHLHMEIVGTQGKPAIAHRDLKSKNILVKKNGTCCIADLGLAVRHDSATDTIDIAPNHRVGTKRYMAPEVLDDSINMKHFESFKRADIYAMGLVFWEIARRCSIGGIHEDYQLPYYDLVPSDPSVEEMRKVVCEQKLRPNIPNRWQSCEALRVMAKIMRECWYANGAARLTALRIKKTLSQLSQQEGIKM

## CN(C(=O)CN1CCOCC1)c1ccc2sc3c(-c4cccc5c(=O)cc(N6CC7CCC(C6)O7)oc45)cccc3c2c1 [NU5455]
  inhibition at 1 µM: -0.4%
